Source: PubChem BioAssay AID330 (DTP/NCI, 2004)
Values joined by “and” are separate entries in the source; they are usually repeats but may differ in a detail not shown here. Identical values can stand only once. Inconclusive results and toxic doses are left out. Rule for the calls: active = survival T/C of 150% or more; inactive = T/C below 125% in these data.

Test system: P388 leukemia ip, CD2F1 mice, survival T/C
Assay: NCI In Vivo Anticancer Drug Screen. Data for tumor model P388 Leukemia (intraperitoneal) in CD2F1 (CDF1) mice
Conditions: endpoint: median survival time, higher = longer survival
Method in brief: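 Mice carrying the transplanted tumor received test compound or vehicle. Survival was recorded in each group, and the value is the treated-group measurement divided by that of the vehicle-treated control group.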

[1] = dose: 60.0 mg/kg/injection, schedule: Q01DX005 (ip), vehicle: Klucel (hydroxypropylcellulose) (HPC)
[2] = dose: 120.0 mg/kg/injection, schedule: Q01DX005 (ip), vehicle: Klucel (hydroxypropylcellulose) (HPC)
[3] = dose: 240.0 mg/kg/injection, schedule: Q01DX005 (ip), vehicle: Klucel (hydroxypropylcellulose) (HPC)
[4] = dose: 50.0 mg/kg/injection, schedule: Q01DX005 (ip), vehicle: Klucel (hydroxypropylcellulose) (HPC)
[5] = dose: 100.0 mg/kg/injection, schedule: Q01DX005 (ip), vehicle: Klucel (hydroxypropylcellulose) (HPC)
[6] = dose: 200.0 mg/kg/injection, schedule: Q01DX005 (ip), vehicle: Klucel (hydroxypropylcellulose) (HPC)
[7] = dose: 100.0 mg/kg/injection, schedule: Q01DX009 (ip), vehicle: saline with Tween-80
[8] = dose: 12.5 mg/kg/injection, schedule: Q01DX009 (ip), vehicle: other
[9] = dose: 25.0 mg/kg/injection, schedule: Q01DX009 (ip), vehicle: other
[10] = dose: 50.0 mg/kg/injection, schedule: Q01DX009 (ip), vehicle: other
[11] = dose: 100.0 mg/kg/injection, schedule: Q01DX009 (ip), vehicle: other
[12] = dose: 30.0 mg/kg/injection, schedule: Q01DX005 (ip), vehicle: saline with Tween-80
[13] = dose: 60.0 mg/kg/injection, schedule: Q01DX005 (ip), vehicle: saline with Tween-80
[14] = dose: 120.0 mg/kg/injection, schedule: Q01DX005 (ip), vehicle: saline with Tween-80
[15] = dose: 240.0 mg/kg/injection, schedule: Q01DX005 (ip), vehicle: saline with Tween-80
[16] = dose: 50.0 mg/kg/injection, schedule: Q01DX005 (ip), vehicle: saline with Tween-80

Measured: T/C

O=C1OCc2c1[nH]c(=O)[nH]c2=O
inactive: dose: 6.25 mg/kg/injection, schedule: Q01DX009 (ip), vehicle: distilled water + Tween-80 105 % of control | dose: 12.5 mg/kg/injection, schedule: Q01DX009 (ip), vehicle: distilled water + Tween-80 96 % of control | dose: 25.0 mg/kg/injection, schedule: Q01DX009 (ip), vehicle: distilled water + Tween-80 110 % of control | dose: 50.0 mg/kg/injection, schedule: Q01DX009 (ip), vehicle: distilled water + Tween-80 100 % of control | dose: 100.0 mg/kg/injection, schedule: Q01DX009 (ip), vehicle: distilled water + Tween-80 105 % of control and 109 % of control | dose: 200.0 mg/kg/injection, schedule: Q01DX009 (ip), vehicle: distilled water + Tween-80 98 % of control | dose: 400.0 mg/kg/injection, schedule: Q01DX009 (ip), vehicle: distilled water + Tween-80 90 % of control

CC1CS(=O)(=O)O1 (stereo not drawn)
inactive: [1] 104 % of control | [2] 103 % of control | [3] 110 % of control

Nc1nc2nc(N=Nc3ccc(S(=O)(=O)O)cc3)[nH]c2c(=O)[nH]1
inactive: [4] 104 % of control | [5] 104 % of control | [6] 104 % of control

NC(C=O)C(O)C(O)C(O)CO (stereo not drawn)
inactive: [7] 109 % of control | dose: 100.0 mg/kg/injection, schedule: Q04DX003 (ip), vehicle: saline sonified 100 % of control | dose: 200.0 mg/kg/injection, schedule: Q01DX009 (ip), vehicle: saline with Tween-80 95 % of control | dose: 200.0 mg/kg/injection, schedule: Q04DX003 (ip), vehicle: saline sonified 100 % of control | dose: 400.0 mg/kg/injection, schedule: Q01DX009 (ip), vehicle: saline with Tween-80 95 % of control | dose: 400.0 mg/kg/injection, schedule: Q04DX003 (ip), vehicle: saline sonified 90 % of control

CN(C)CCCC1(c2cccc(Cl)c2)SC(C)(C)c2ccccc21 (stereo not drawn)
inactive: dose: 25.0 mg/kg/injection, schedule: Q01DX001 (ip), vehicle: saline 97 % of control | dose: 50.0 mg/kg/injection, schedule: Q01DX001 (ip), vehicle: saline 93 % of control

COc1ccc2nc3cc(Cl)ccc3c(Nc3cccc(NC(C)=O)c3)c2n1
inactive: dose: 6.25 mg/kg/injection, schedule: Q01DX009 (ip), vehicle: other 108 % of control | [8] 102 % of control | [9] 102 % of control | [10] 98 % of control | [11] 99 % of control

Cc1ccc(N/N=C/C(=O)O)cc1
inactive: [8] 113 % of control | [9] 103 % of control | [10] 112 % of control | [11] 98 % of control | dose: 200.0 mg/kg/injection, schedule: Q01DX009 (ip), vehicle: other 116 % of control | dose: 400.0 mg/kg/injection, schedule: Q01DX009 (ip), vehicle: other 116 % of control

NC(=O)NC1CC1c1ccc(Cl)c(Cl)c1 (stereo not drawn)
inactive: [4] 103 % of control | [5] 99 % of control | [6] 114 % of control

c1ccc(C(Nc2nncs2)Nc2nncs2)cc1
inactive: [12] 99 % of control | [13] 100 % of control and 112 % of control | [14] 117 % of control
active: [15] 157 % of control and 164 % of control

Nc1nc2nc(-c3ccccc3)nc(N)c2nc1C(=O)NN1CCCCC1
inactive: dose: 37.5 mg/kg/injection, schedule: Q01DX009 (ip), vehicle: saline with Tween-80 100 % of control | dose: 75.0 mg/kg/injection, schedule: Q01DX009 (ip), vehicle: saline with Tween-80 87 % of control | dose: 150.0 mg/kg/injection, schedule: Q01DX009 (ip), vehicle: saline with Tween-80 100 % of control

O=C1c2ccccc2-c2c1nc1ccccc1[n+]2[O-]
inactive: dose: 6.25 mg/kg/injection, schedule: Q01DX005 (ip), vehicle: saline 102 % of control | dose: 12.5 mg/kg/injection, schedule: Q01DX005 (ip), vehicle: saline 103 % of control | dose: 25.0 mg/kg/injection, schedule: Q01DX005 (ip), vehicle: saline 96 % of control

Cc1cc(N(CCOS(C)(=O)=O)CCOS(C)(=O)=O)ccc1C=Nc1ccc(-c2csc(-c3ccccc3)n2)c(Cl)c1
inactive: dose: 6.25 mg/kg/injection, schedule: Q01DX009 (ip), vehicle: Klucel (hydroxypropylcellulose) (HPC) 110 % of control | dose: 12.5 mg/kg/injection, schedule: Q01DX009 (ip), vehicle: Klucel (hydroxypropylcellulose) (HPC) 122 % of control | dose: 100.0 mg/kg/injection, schedule: Q01DX009 (ip), vehicle: Klucel (hydroxypropylcellulose) (HPC) 98 % of control and 87 % of control

CNC(=O)OCCC(OC(=O)NC)C1CCC2C3CC=C4CC(OC(=O)NC)CCC4(C)C3CCC12C (stereo not drawn)
inactive: [1] 99 % of control | [2] 93 % of control | [3] 100 % of control

C[Si]1(C)O[Si](C)(C)N(N)P(=S)(Oc2ccccc2)N1N
inactive: dose: 12.5 mg/kg/injection, schedule: Q01DX005 (ip), vehicle: saline with Tween-80 101 % of control | dose: 25.0 mg/kg/injection, schedule: Q01DX005 (ip), vehicle: saline with Tween-80 108 % of control | [16] 104 % of control and 111 % of control

Cc1cc(=O)c2c([nH]1)c1c(c3[nH]c(C)cc(=O)c32)Oc2ccccc2O1
inactive: [16] 93 % of control | dose: 100.0 mg/kg/injection, schedule: Q01DX005 (ip), vehicle: saline with Tween-80 95 % of control | dose: 200.0 mg/kg/injection, schedule: Q01DX005 (ip), vehicle: saline with Tween-80 97 % of control

O=C(N/N=C/c1cc(Cl)ccc1O)C(=O)N/N=C/c1cc(Cl)ccc1O
inactive: dose: 50.0 mg/kg/injection, schedule: Q01DX009 (ip), vehicle: water 92 % of control | dose: 100.0 mg/kg/injection, schedule: Q01DX009 (ip), vehicle: water 92 % of control | dose: 200.0 mg/kg/injection, schedule: Q01DX009 (ip), vehicle: water 100 % of control

CN1CC=Nc2c1nc(N)[nH]c2=O
inactive: dose: 50.0 mg/kg/injection, schedule: Q01DX009 (ip), vehicle: saline with Tween-80 98 % of control | [7] 95 % of control

CCC1CCC(=O)NC1=O (stereo not drawn)
inactive: [13] 103 % of control | [14] 103 % of control | [15] 98 % of control

COc1ccc2nccc(C(=O)CCC3CCN(C(=O)c4ccc([N+](=O)[O-])cc4)CC3C(Br)CBr)c2c1 (stereo not drawn)
inactive: dose: 100.0 mg/kg/injection, schedule: Q04DX002 (ip), vehicle: saline with Tween-80 108 % of control | dose: 200.0 mg/kg/injection, schedule: Q04DX002 (ip), vehicle: saline with Tween-80 105 % of control

CCOC(=O)C1C2CCC(O2)C1C#N (stereo not drawn)
inactive: dose: 15.0 mg/kg/injection, schedule: Q01DX005 (ip), vehicle: saline with Tween-80 100 % of control | [12] 101 % of control | [13] 93 % of control

CC1CC(=O)OC2CC(C)(C)CC(=O)C12 (stereo not drawn)
inactive: dose: 100.0 mg/kg/injection, schedule: Q01DX009 (ip), vehicle: saline 100 % of control | dose: 200.0 mg/kg/injection, schedule: Q01DX009 (ip), vehicle: saline 100 % of control | dose: 400.0 mg/kg/injection, schedule: Q01DX009 (ip), vehicle: saline 109 % of control

O=C([O][Bi]([c]1ccccc1)[c]1ccccc1)c1ccccc1
inactive: dose: 6.25 mg/kg/injection, schedule: Q01DX005 (ip), vehicle: Klucel (hydroxypropylcellulose) (HPC) 113 % of control | dose: 12.5 mg/kg/injection, schedule: Q01DX005 (ip), vehicle: Klucel (hydroxypropylcellulose) (HPC) 106 % of control | dose: 25.0 mg/kg/injection, schedule: Q01DX005 (ip), vehicle: Klucel (hydroxypropylcellulose) (HPC) 102 % of control and 106 % of control | [4] 122 % of control

COc1ccc2c(c1O)-c1cccc3c1[C@@H](C2)N(CCOC(=O)NCCCl)CC3
inactive: dose: 9.38 mg/kg/injection, schedule: Q04DX003 (ip), vehicle: distilled water + Tween-80 101 % of control | dose: 18.75 mg/kg/injection, schedule: Q04DX003 (ip), vehicle: distilled water + Tween-80 99 % of control | dose: 37.5 mg/kg/injection, schedule: Q04DX003 (ip), vehicle: distilled water + Tween-80 97 % of control | dose: 75.0 mg/kg/injection, schedule: Q04DX003 (ip), vehicle: distilled water + Tween-80 99 % of control | dose: 150.0 mg/kg/injection, schedule: Q04DX003 (ip), vehicle: distilled water + Tween-80 99 % of control | dose: 300.0 mg/kg/injection, schedule: Q04DX003 (ip), vehicle: distilled water + Tween-80 105 % of control
